According to patent US9169254B2, “Spiroimidazolone derivative” (Chugai Seiyaku Kabushiki Kaisha, priority 2009, dated 2015):

Biological target: T1, human PTH1 receptor (Homo sapiens, UniProt Q03431)
T1 sequence (Q03431 27-593): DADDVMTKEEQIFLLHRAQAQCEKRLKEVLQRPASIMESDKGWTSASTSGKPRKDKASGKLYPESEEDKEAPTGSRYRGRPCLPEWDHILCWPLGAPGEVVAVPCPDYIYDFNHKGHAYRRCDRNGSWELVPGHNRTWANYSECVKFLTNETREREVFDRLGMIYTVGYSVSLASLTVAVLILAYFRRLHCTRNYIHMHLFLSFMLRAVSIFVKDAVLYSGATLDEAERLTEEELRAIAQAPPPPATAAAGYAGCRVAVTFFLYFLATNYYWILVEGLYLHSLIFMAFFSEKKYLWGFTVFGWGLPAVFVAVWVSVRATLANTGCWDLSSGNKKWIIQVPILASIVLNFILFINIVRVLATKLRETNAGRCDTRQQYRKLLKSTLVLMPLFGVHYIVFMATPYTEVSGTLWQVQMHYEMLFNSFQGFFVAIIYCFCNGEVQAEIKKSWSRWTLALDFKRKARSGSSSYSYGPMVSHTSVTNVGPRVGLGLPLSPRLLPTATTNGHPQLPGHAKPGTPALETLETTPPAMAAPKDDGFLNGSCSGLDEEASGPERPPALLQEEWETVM
Assay: In vitro cAMP signal activity in HKRK-B7 cells (LLC-PK1 cells overexpressing the human PTH1 receptor)
Assay type: cell-based
Conditions: HKRK-B7 cells; compound at 1×10^−3 M; cAMP produced as percentage of that produced by hPTH(1-34) at 100 nM

Row | cAMP production activity (%) | SMILES
1 | 64% | Cc1cc(C(=O)N2CCN(C)CC2)cc(C)c1/C=C/S(=O)(=O)N1CCC2(CC1)N=C(C1CCC(CCC(F)(F)F)CC1)NC2=O (stereo not drawn) [Compound 991, 8-{(E)-2-[2,6-dimethyl-4-(4-methyl-piperazine-1-carbonyl)-phenyl]-ethenesulfonyl}-2-[4-(3,3,3-trifluoro-propyl)-cyclohexyl]-1,3,8-triaza-spiro[4.5]dec-1-en-4-one]
2 | 65% | Cc1cc(C(=O)N2CCCO2)cc(C)c1/C=C/S(=O)(=O)N1CCC2(CC1)N=C(C1CCC(CCC(F)(F)F)CC1)NC2=O (stereo not drawn) [Compound 992, 8-{(E)-2-[4-(isoxazolidine-2-carbonyl)-2,6-dimethyl-phenyl]-ethenesulfonyl}-2-[4-(3,3,3-trifluoro-propyl)-cyclohexyl]-1,3,8-triaza-spiro[4.5]dec-1-en-4-one]
3 | 64% | Cc1cc(C(=O)N2CCC(OC[C@H](O)CO)CC2)cc(C)c1/C=C/S(=O)(=O)N1CCC2(CC1)N=C(C1CCC(CCC(F)(F)F)CC1)NC2=O (stereo partly drawn) [Compound 993, 8-((E)-2-{4-[4-((R)-2,3-dihydroxy-propoxy)-piperidine-1-carbonyl]-2,6-dimethyl-phenyl}-ethenesulfonyl)-2-[4-(3,3,3-trifluoro-propyl)-cyclohexyl]-1,3,8-triaza-spiro[4.5]dec-1-en-4-one]
4 | 87% | Cc1cc(C(=O)N(C)C)cc(C)c1/C=C/S(=O)(=O)N1CCC2(CC1)N=C(C1CCC(CCC(F)(F)F)CC1)NC2=O (stereo not drawn) [Compound 994, 3,5,N,N-tetramethyl-4-((E)-2-{4-oxo-2-[4-(3,3,3-trifluoro-propyl)-cyclohexyl]-1,3,8-triaza-spiro[4.5]dec-1-ene-8-sulfonyl}-vinyl)-benzamide]
5 | 98% | Cc1cc(C(=O)N2CCN(C)CC2)cc(C)c1CCS(=O)(=O)N1CCC2(CC1)N=C(C1CCC(CCC(F)(F)F)CC1)NC2=O (stereo not drawn) [Compound 995, 8-{2-[2,6-Dimethyl-4-(4-methyl-piperazine-1-carbonyl)-phenyl]-ethanesulfonyl}-2-[4-(3,3,3-trifluoro-propyl)-cyclohexyl]-1,3,8-triaza-spiro[4.5]dec-1-en-4-one]
6 | 85% | Cc1cc(C(=O)NN)cc(C)c1/C=C/S(=O)(=O)N1CCC2(CC1)N=C(C1CCC(CCC(F)(F)F)CC1)NC2=O (stereo not drawn) [Compound 996, 3,5-Dimethyl-4-((E)-2-{4-oxo-2-[4-(3,3,3-trifluoro-propyl)-cyclohexyl]-1,3,8-triaza-spiro[4.5]dec-1-ene-8-sulfonyl}-vinyl)-benzoic acid hydrazide]
7 | 74% | Cc1cc(C(=O)N2CCCN2)cc(C)c1/C=C/S(=O)(=O)N1CCC2(CC1)N=C(C1CCC(CCC(F)(F)F)CC1)NC2=O (stereo not drawn) [Compound 997, 8-{(E)-2-[2,6-dimethyl-4-(pyrazolidine-1-carbonyl)-phenyl]-ethenesulfonyl}-2-[4-(3,3,3-trifluoro-propyl)-cyclohexyl]-1,3,8-triaza-spiro[4.5]dec-1-en-4-one]
8 | 92% | CON(C)C(=O)c1cc(C)c(/C=C/S(=O)(=O)N2CCC3(CC2)N=C(C2CCC(C)CC2)NC3=O)c(C)c1 (stereo not drawn) [Compound 998, N-Methoxy-3,5,N-trimethyl-4-{(E)-2-[2-(4-methyl-cyclohexyl)-4-oxo-1,3,8-triaza-spiro[4.5]dec-1-ene-8-sulfonyl]-vinyl}-benzamide]
9 | 61% | Cc1cc(C(=O)N2CCC(C)(O)CC2)cc(C)c1/C=C/S(=O)(=O)N1CCC2(CC1)N=C(C1CCC(C)CC1)NC2=O (stereo not drawn) [Compound 999, 8-{(E)-2-[4-(4-hydroxy-4-methyl-piperidine-1-carbonyl)-2,6-dimethyl-phenyl]-ethenesulfonyl}-2-(4-methyl-cyclohexyl)-1,3,8-triaza-spiro[4.5]dec-1-en-4-one]
